Entries after “also recorded” stand apart in the source; their conditions may differ.

Data set [1] concerns corneal endothelial cells with Fuchs' endothelial corneal dystrophy (iFECD). The data set is described as follows: Annexin V positive apoptosis cells by flow cytometry, iFECD. Format: cell-based, human. The settings on record: for TGFβ2-induced increase of annexin V positive apoptotic cells, effect of inhibitor: TGFβ2 plus inhibitor, 24 hours. As to the method:
The human corneal endothelial cells (iHCEC) or corneal endothelial cells with Fuchs' endothelial corneal dystrophy (iFECD) prepared in the Preparation Examples were seeded on a culture dish coated with FNC Coating Mix and culture for about 3 days until reaching sub-confluence under the condition of 5% CO2 at 37° C. Furthermore, TGFβ2 and SB431542 were added and the cells were incubated for 24 hours under the condition of 5% CO2 at 37° C. Cells were peeled off with ACCUMAX. Annexin V or PI positive cells were measured by using Annexin V and PI and a flow cytometer (FACS Aria II (BD Biosciences, Franklin Lakes, N.J.)) with MEBCYTO Apoptosis Kit (Annexin V-FITC Kit) 100 test (4700, MEDICAL & BIOLOGICAL LABORATORIES).
The human corneal endothelial cells (iHCEC) or corneal endothelial cells with Fuchs' endothelial corneal dystrophy (iFECD) prepared in the Preparation Examples were seeded on a culture dish coated with FNC Coating Mix and culture for about 3 days until reaching sub-confluence under the condition of 5% CO2 at 37° C. Furthermore, TGFβ2, SB431542 and TGFβ signal inhibitor A-83-01 (Wako, Osaka; catalog No: 018-22521), ALK5 inhibitor (Wako catalog No: 012-23021; CAS No. 446859-33-2; 2-(3-(6-methylpyridine-2-yl)-1H-pyrazole-4-yl)-1,5-naphthyridine) were added and the cells were incubated for 24 hours under the condition of 5% CO2 at 37° C. The cells were peeled off with ACCUMAX. Annexin V or PI positive cells were measured by using annexin V and propidium iodide (PI) with a flow cytometer (FACS Aria II (BD Biosciences, Franklin Lakes, N.J.)).

Data set [2] shares this test system. Type of data set: cell-based, human. As to the method:
The human corneal endothelial cells (iHCEC) or corneal endothelial cells with Fuchs' endothelial corneal dystrophy (iFECD) prepared in the Preparation Examples were seeded on a culture dish coated with FNC Coating Mix and cultured for about 3 days until reaching sub-confluence under the condition of 5% CO2 at 37° C. Furthermore, TGFβ2, SB431542 and TG were added and the cells were incubated for 24 hours under the condition of 5% CO2 at 37° C. Cell morphology and apoptosis were then observed under a phase difference microscope.

For another data set, the system named is iHCEC. Put plainly: Western blot of apoptosis associated proteins after staurosporine stimulation. Format: cell-based, human. The settings on record: 15 minutes to 4 hours after staurosporine stimulation. As to the method: Caspase 9, caspase 3 and poly(ADP-ribose) polymerase (PARP) were assessed by Western blot in iHCEC stimulated with a mitochondrial stress stimulant staurosporine (abcam, ab120056) in order to assess the involvement of mitochondrial failure in apoptosis.
A stimulation was applied with staurosporine to induce a mitochondrial disorder to examine the chronological change.
Western blot was performed in accordance with the descriptions in Example 2. The following antibodies were used in addition to those used in Example 2.
In general terms: Immunoblotting shows a protein as a band on a membrane.

For data set [3], the system named is corneal endothelial cells with Fuchs' endothelial corneal dystrophy (iFECD). The data set is described as follows: Aggresome measurement by flow cytometry (ProteoStat Aggresome Detection Kit). Format: cell-based, human. As to conditions: TGFβ2 10 ng/ml, 24 hours. As to the method:
1×10^5 human corneal endothelial cells (iHCEC) or corneal endothelial cells with Fuchs' endothelial corneal dystrophy (iFECD) were seeded onto a 6 well plate coated with an FNC Coating Mix and cultured for about 2 days until reaching sub-confluence under the condition of 5% CO2 at 37° C. Furthermore, TGFβ2 (10 ng/ml; R&D SYSTEMS) was added and the cells were incubated for 24 hours under the condition of 5% CO2 at 37° C. The cells were then peeled off with ACCUMAX™ (Funakoshi), and aggresomes were measured with a flow cytometer (FACS Aria II (BD Biosciences, Franklin Lakes, N.J.) by using a ProteoStat® Aggresome Detection Kit: (EZN-51035-K100, Enabling Discovery in Life Science®).
In general terms: Flow cytometry measures light scatter and fluorescence of single cells or particles in a stream.

Data set [4] has as its system human corneal endothelial cells (iHCEC). Put plainly: Annexin V positive apoptosis cells by flow cytometry, iHCEC. The settings on record: after TGFβ stimulation (11.1±0.6% before stimulation). Type of data set: cell-based. As to the method:
Further, it is known as the knowledge of the inventors that PERK phosphorylation and ATF6 cleavage were increased more in iFECD than in iHCEC by TGFβ. In order to investigate the involvement of TGFβ signaling in apoptosis, cells were treated with TGFβ and annexin V positive apoptosis cells were assessed by flow cytometry. […] Meanwhile, it is known that TGFβ increases annexin V positive cells after a stimulation in iFECD relative to the number prior to a TGFβ stimulation (as exemplary data, 19.4±1.4% prior to stimulation and 29.9±1.5% after stimulation, p<0.01). In addition thereto, it is shown that expression of the chaperone GRP78 is elevated. Further, it is shown that the expression of CHOP is elevated and apoptosis is induced by ER stress. […]
The human corneal endothelial cells (iHCEC) or corneal endothelial cells with Fuchs' endothelial corneal dystrophy (iFECD) prepared in the Preparation Examples were seeded on a culture dish coated with FNC Coating Mix and culture for about 3 days until reaching sub-confluence under the condition of 5% CO2 at 37° C. […] Annexin V or PI positive cells were measured by using Annexin V and PI and a flow cytometer (FACS Aria II (BD Biosciences, Franklin Lakes, N.J.)) with MEBCYTO Apoptosis Kit (Annexin V-FITC Kit) 100 test (4700, MEDICAL & BIOLOGICAL LABORATORIES).

The subject of the next data set is iHCEC and iFECD. Put plainly: Western blot of ER stress markers after TGFβ2 stimulation. Type of data set: cell-based, human. As to the method: Western blot: Electrophoresis was applied to a protein extracted and obtained in a RIPA buffer with 7.5% polyacrylamide. The isolated protein was transferred onto a PVDF membrane (PALL LIFE SCIENCE (catalog number: EH-2222)). A Tris buffered saline (10 mM Tris-HCl, pH 7.4; 100 mM NaCl) (TBS-T) comprising 0.1% (vol/vol) polyethylene sorbitan monolaurate (Nacalai Tesque, catalog number: 28353-85) complemented with 5% NON FAT DRY MILK (CELL SIGNALING, catalog number: 9999) and a blotted membrane were incubated for 1 hour for a blocking operation. The membrane was immersed in anti-GRP78 antibodies diluted 1000 fold with TBS-T complemented with 5% NON FAT DRY MILK and reacted for 1 hour at room temperature. After washing three times with TBS-T and incubating with a mouse-IgG antibody HRP complex (CELL SIGNALING (catalog number: 7074P2)) and washing, a band illuminated with an ECL-ADVAVCE Western Blotting Detection Kit (GE Healthcare Japan (catalog number: RPN2135V)) was detected.
Cells were stimulated for 24 hours with 10 ng/ml TGFβ2 (R&D SYSTEMS). Further, cells stimulated for 24 hours with 10 μM of thapsigargin (TG; Alomone Laboratories Ltd., Jerusalem, Israel) were used as a positive control of ER stress.
Cells were stimulated with 10 ng/ml TGFβ2 (R&D SYSTEMS). Further, cells stimulated with thapsigargin (TG; Alomone Laboratories Ltd., Jerusalem, Israel) were used as a positive control of ER stress.
In the present Example, a Western blot was performed as in Example 2 to investigate the expression of the molecular chaperone GRP78 and CHOP involved with apoptosis due to an ER stress response in order to confirm that a stronger ER stress is elicited by TGF-β in Fuchs' endothelial corneal dystrophy. Further, expression of phosphorylated PERK and ATF6 involved in stress signaling on an endoplasmic reticulum membrane was also examined therewith. A stimulation was applied with 10 ng/ml of TGFβ2 (R&D SYSTEMS). The chronological change was also examined therewith.

[5] abbreviates: 10 ng/ml TGFβ2, 3 and 6 hours, more significant in iFECD than iHCEC.

For the molecule `Cc1cccc(-c2nn(C(=S)Nc3ccccc3)cc2-c2ccnc3ccccc23)n1` [A-83-01, 3-(6-methyl-2-pyridinyl)-N-phenyl-4-(4-quinolinyl)-1H-pyrazole-1-carbothioamide], the “TGFβ2-induced increase of annexin V positive apoptotic cells, effect of inhibitor” value (from here on “TGFβ2-induced increase … of inhibitor”) in data set [1] was “suppress apoptotic cells”.

On to `Cc1cccc(-c2n[nH]cc2-c2ccc3ncccc3n2)n1` [ALK5 inhibitor, 2-(3-(6-methylpyridine-2-yl)-1H-pyrazole-4-yl)-1,5-naphthyridine], for which the “TGFβ2-induced increase … of inhibitor” value in data set [1] was “suppress apoptotic cells”.

Regarding `NC(=O)c1ccc(-c2nc(-c3ccc4c(c3)OCO4)c(-c3ccccn3)[nH]2)cc1` [SB431542, 4-[4-(1,3-benzodioxole-5-yl)-5-(2-pyridinyl)-1H-imidazole-2-yl]benzamide], the “TGFβ2-induced increase … of inhibitor” value in data set [1] is on record as “cancelled; also recorded: suppresses apoptosis”. Besides, the “floating cells induced by TG (thapsigargin), effect of inhibitor” value in data set [2] (iFECD, TG stimulation, 24 hours) was “not cancelled”. In addition, the “floating cells (cell damage) induced by TGFβ2, effect of inhibitor” value in data set [2] (iFECD, TGFβ2 stimulation, 24 hours) is given as “cancelled”.

As for `C/C=C(/C)C(=O)O[C@H]1C(C)=C2[C@H]([C@@H]1OC(=O)CCCCCCC)[C@@](C)(OC(C)=O)C[C@H](OC(=O)CCC)[C@@]1(O)[C@H]2OC(=O)[C@@]1(C)O` [TG, thapsigargin], the “cell damage / floating cells caused by the stimulant” value in data set [2] is on record as “large amount of floating cells”.

As to `CN[C@@H]1C[C@H]2O[C@@](C)([C@@H]1OC)n1c3ccccc3c3c4c(c5c6ccccc6n2c5c31)C(=O)NC4` [staurosporine], the “activation of caspase 9, caspase 3 and PARP” value with iHCEC is “activate”.

For the molecule “TGFβ2: transforming growth factor-β2 (R&D SYSTEMS) used to stimulate cells at 10 ng/ml”, in data set [3], the “increase of aggresomes (fluorescence intensity)” value was 1.11 fold. Further, in data set [4], the “percentage of annexin V positive apoptosis cells after stimulation” value came to 12.3±0.5%. Moreover, the “percentage of annexin V positive apoptosis cells after stimulation” value in data set [1] (after TGFβ stimulation (19.4±1.4% prior to stimulation), p<0.01) amounted to 29.9±1.5%. In addition, in the data set with iHCEC and iFECD (10 ng/ml TGFβ2, 3 and 6 hours), the “expression of CHOP” value is on record as “increases” and the “expression of the chaperone GRP78” value is given as “increases”. Further, in the data set with iHCEC and iFECD (setting [5]), the “expression of ATF6” value is reported as “promotes expression” and the “phosphorylation of PERK (ER stress sensor)” value is listed as “promotes phosphorylation”. The “expression of chaperone GRP78 and stress sensor IRE1” value with iHCEC and iFECD (10 ng/ml TGFβ2, iFECD and normal cells, level high especially in iFECD) is on record as “induced”. For the same molecule, the “cell damage / floating cells caused by the stimulant” value in data set [2] is on record as “damaged”.

These data come from patent US11382904B2, “Therapeutic drug for diseases related to endoplasmic reticulum cell death in corneal endothelium” (KYOTO PREFECTURAL PUBLIC UNIVERSITY CORPORATION, priority 2013, dated 2022).
